In brackets after ≈: the same amount, converted by molar mass.
Tests used:
[1] = Kinetic aqueous solubility in PBS by nephelometry; details: PBS buffer (pH 7.4) with 1% DMSO, nephelometry
human EP4 receptor = human EP4 receptor (Homo sapiens, UniProt P35408); assay: Cell-based cAMP TR-FRET assay on EP4 (agonist PGE2); details: selectivity index EP4 KB/EP2 KB, fold
human IP receptor = human IP receptor (Homo sapiens, UniProt P43119); assay: Cell-based cAMP TR-FRET assay on IP (agonist iloprost); details: selectivity index IP KB/EP2 KB, fold
in vivo = details: C57BL/6, mouse, ip, 10 mg/kg
physchem = details: pH 2, simulated gastric fluid, kinetic from dmso stock
[2] = pH 2
human EP2 receptor = molecular target: T1, human EP2 receptor (Homo sapiens, UniProt P43116); assay: Cell-based cAMP TR-FRET assay, Schild KB on EP2; details: for Kb: Schild KB, agonist PGE2, antagonist concentration 1 μM, C6G cells expressing human EP2
T1 construct: expressed in transfected cells

[3] = Mouse liver microsomal (MLM) stability

T1 sequence (P43116 whole entry): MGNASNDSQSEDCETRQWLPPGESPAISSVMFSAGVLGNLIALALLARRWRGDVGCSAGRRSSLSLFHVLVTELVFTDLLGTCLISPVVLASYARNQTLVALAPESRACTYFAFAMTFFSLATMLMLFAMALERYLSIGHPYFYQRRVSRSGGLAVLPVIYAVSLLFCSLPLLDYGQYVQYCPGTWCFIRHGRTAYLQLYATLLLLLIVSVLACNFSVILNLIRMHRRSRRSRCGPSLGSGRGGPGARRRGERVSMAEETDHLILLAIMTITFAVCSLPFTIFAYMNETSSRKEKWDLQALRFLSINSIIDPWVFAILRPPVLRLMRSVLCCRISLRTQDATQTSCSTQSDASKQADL
Sequence of human EP4 receptor (P35408 whole entry): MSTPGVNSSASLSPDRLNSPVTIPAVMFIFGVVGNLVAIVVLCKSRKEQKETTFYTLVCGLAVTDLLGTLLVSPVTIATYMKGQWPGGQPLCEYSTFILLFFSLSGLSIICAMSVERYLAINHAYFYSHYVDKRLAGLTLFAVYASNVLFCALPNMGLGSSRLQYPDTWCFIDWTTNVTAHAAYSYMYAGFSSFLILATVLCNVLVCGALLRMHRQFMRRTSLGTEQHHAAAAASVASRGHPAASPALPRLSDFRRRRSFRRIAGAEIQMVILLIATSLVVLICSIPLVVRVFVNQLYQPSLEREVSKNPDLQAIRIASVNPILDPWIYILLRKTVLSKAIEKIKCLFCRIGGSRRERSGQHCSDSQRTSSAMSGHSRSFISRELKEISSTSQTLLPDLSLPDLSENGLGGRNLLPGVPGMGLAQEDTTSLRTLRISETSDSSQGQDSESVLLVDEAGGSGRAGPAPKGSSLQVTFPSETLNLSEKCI
Sequence of human IP receptor (P43119 whole entry): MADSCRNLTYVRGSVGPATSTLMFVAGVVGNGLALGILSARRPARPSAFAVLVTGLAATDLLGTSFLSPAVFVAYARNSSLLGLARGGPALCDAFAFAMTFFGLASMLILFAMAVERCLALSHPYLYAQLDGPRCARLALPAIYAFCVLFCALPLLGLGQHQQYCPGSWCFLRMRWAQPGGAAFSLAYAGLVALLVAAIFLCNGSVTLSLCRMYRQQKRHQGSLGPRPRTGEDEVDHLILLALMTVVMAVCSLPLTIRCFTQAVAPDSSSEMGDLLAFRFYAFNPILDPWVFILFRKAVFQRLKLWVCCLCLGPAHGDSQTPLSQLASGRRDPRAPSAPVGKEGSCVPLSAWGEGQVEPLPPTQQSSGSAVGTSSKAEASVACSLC

SMILES	Aqueous Solubility [1] [µM]	S.I (EP4/EP2) (human EP4 receptor)	S.I (IP/EP2) (human IP receptor)	further results
Cc1cccc(Nc2ncc(C(=O)NCCc3c(C)[nH]c4ccccc34)cn2)n1 [Compound 20e, N-(2-(2-Methyl-1H-indol-3-yl)ethyl)-2-((6-methylpyridin-2-yl)amino)pyrimidine-5-carboxamide]	25	>1500	>1500	
COc1ccccc1-c1ncc(C(=O)NCCc2c(C)[nH]c3ccccc23)cn1 [Compound 14a, 2-(2-Methoxyphenyl)-N-(2-(2-methyl-1H-indol-3-yl)ethyl)pyrimidine-5-carboxamide]	71	517	730	half-life (in vivo): < 1 h; solubility (physchem): > 100 µM
COc1cc(OC)cc(-c2ccc(C(=O)NCCc3c(C)[nH]c4ccccc34)cn2)c1 [Compound 8g, 6-(3,5-Dimethoxyphenyl)-N-(2-(2-methyl-1H-indol-3-yl)ethyl)nicotinamide]	12			Solubility in SGF [2]: >100 µM; half-life (in vivo): < 1 h
Cc1cc(C)nc(Nc2ncc(C(=O)NCCc3c(C)[nH]c4c(F)cc(F)cc34)cn2)c1 [Compound 24c, N-(2-(5,7-Difluoro-2-methyl-1H-indol-3-yl)ethyl)-2-((4,6-dimethylpyridin-2-yl)amino)pyrimidine-5-carboxamide]			>500	Kb (human EP2 receptor): 20 nM; solubility (physchem): > 100 µM
COc1ccccc1-c1ccc(C(=O)NCCc2c(C)[nH]c3ccccc23)cn1 [Compound 8c, 6-(2-Methoxyphenyl)-N-(2-(2-methyl-1H-indol-3-yl)ethyl)nicotinamide]	28			Solubility in SGF [2]: >100 µM; half-life (in vivo): < 1 h
Cc1ccnc(Nc2ncc(C(=O)NCCc3c(C)[nH]c4ccccc34)cn2)c1 [Compound 20b, N-(2-(2-Methyl-1H-indol-3-yl)ethyl)-2-((4-methylpyridin-2-yl)amino)pyramidine-5-carboxamide]	25			MLM T½ ([3]; 1 μM compound, 0.125 mg/mL liver microsomes, NADPH): 8 min
Cc1[nH]c2ccccc2c1CCNC(=O)c1cnc(Nc2cccc(F)n2)nc1 [Compound 20f, 2-((6-Fluoropyridin-2-yl)amino)-N-(2-(2-methyl-1H-indol-3-yl)ethyl)pyrimidine-5-carboxamide]	41			fold higher half-life in liver microsomes ([3]; 24i vs 20o, 20c vs 20b, 20f vs 20e): 8 fold
Cc1[nH]c2ccccc2c1CCNC(=O)c1cnc(Nc2cccnc2)nc1 [Compound 20q, N-(2-(2-Methyl-1H-indol-3-yl)ethyl)-2-(pyridin-3-ylamino)pyrimidine-5-carboxamide]	17	>1200	>1200	Kb (human EP2 receptor): 8.3 nM
COc1cccc(-c2ccc(C(=O)NCCc3c(C)[nH]c4ccccc34)nc2)c1 [Compound 11a, 5-(3-Methoxyphenyl)-N-(2-(2-methyl-1H-indol-3-yl)ethyl)picolinamide]	14			fold less potent than equivalent derivative (human EP2 receptor; 11a vs 8b, 11b vs 8g, 11c vs 8f): 4 fold; Solubility in SGF [2]: 14 µM (≈ 5.4 µg/mL)
Cc1cc(C)nc(Nc2ncc(C(=O)NCCc3c(C)[nH]c4ccc(F)cc34)cn2)c1 [Compound 24a, 2-((4,6-Dimethylpyridin-2-yl)amino)-N-(2-(5-fluoro-2-methyl-1H-indol-3-yl)ethyl)pyrimidine-5-carboxamide]	5		770	
Cc1cc(C)nc(Nc2ncc(C(=O)NCCc3c(C)[nH]c4ccc(Cl)cc34)cn2)c1 [Compound 24b, N-(2-(5-Chloro-2-methyl-1H-indol-3-yl)ethyl)-2-((4,6-dimethylpyridin-2-yl)amino)pyrimidine-5-carboxamide]	20	>350	>350	Kb (human EP2 receptor): 28.3 nM
